Source: patent US20110281812A1, “Compounds” (priority 2009, published 2011)
Where two headings read alike, the source gives them in different places.

How the values were obtained:
male BALB/cJ mice = experiment: Lung neutrophilia induced by bacterial lipopolysaccharide in male BALB/cJ mice - Method B; format: in vivo; settings: Mus musculus, ip, 24 h, single dose of 100 mg/kg i.p., vs LPS challenged untreated animals
Method: For intraperitoneal administration (i.p.) compounds were dissolved in a final concentration of 10 mg/mL. The required amount of compound was first dissolved in dimethylsulfoxide (DMSO, Sigma) and then diluted with 0.5% (w/v) methyl-cellulose so that the final DMSO concentration was 5% (v/v). The obtained solution was applied in a dose volume of 0.1 mL per 10 g of animal. Therefore, the compound dose was 100 mg/kg.
Male BALB/cJ mice (Charles River, Germany), with an average weight of ˜25 g were randomly grouped (n=8 in testing group, 10 in positive control and 6-8 in negative control). Mice received intraperitoneally (i.p.) a single dose of 100 mg/kg of test compound. Two hours after administration, 0.4 μg of LPS (from Escherichia coli serotype 0111:B4, Sigma), dissolved in sterile saline (0.9% NaCl) in a volume of 50 μL, was intranasally administered to all experimental groups except the negative control group, which received the same volume of vehicle (saline). Animals were sacrificed approximately 24 hours after application of LPS in order to obtain bronchoalveolar lavage fluid (BALF), which was used to determine absolute number of cells and the percentage of neutrophils. […] In some experiments neutrophil levels in BALF were assessed by measurement of concentration of a neutrophil-specific enzyme myeloperoxidase (MPO). Results are then expressed as percentage of decrease in myeloperoxidase (MPO) concentration measured in BALF lysates of treated animals compared to positive control (Mouse MPO ELISA Kit, Hycult biotechnology, Nederlands). For this purpose, BALF was sonicated after addition of 1.5% Triton-X-100 (Pharmacia Biotech) in Milli-Q water and frozen at −80° C. until analysed.

[1] = system: IL-6 production in LPS-stimulated murine spleenocytes; experiment: Inhibition of IL-6 production in LPS-stimulated murine spleenocytes in vitro; format: cell-based; settings: Mus musculus, 50 μM concentration of the compound, read-out: inhibition of interleukin-6 (IL-6) production
Method: Test and reference substances used in an in vitro assays were dissolved in dimethyl sulfoxide (DMSO) (Sigma Chemical Co., USA) at a concentration of 50 mM and were further diluted to test concentrations in appropriate cell culture medium.
After cervical dislocation, mouse spleens were removed using sterile dissection tools. Spleens were transferred to a pre-wetted cell strainer in a 50 mL sterile conical tube and cell suspension was made by gentle puddle. Cells were centrifuged (20 min, 300×g) and resuspended in 2 mL of sterile phosphate buffered saline (PBS) (Sigma Chemical Co., USA). Red blood cells were lysed by addition of 3 mL of sterile water and occasionally gentle shaking for 1 minute. Afterwards, the tube was filled to 40 mL with DMEM medium and centrifuged (20 min, 300×g). Cells were resuspended in DMEM supplemented with 1% FBS and seeded in a 24-well plate, 1×10^6 cells per mL medium.
Final concentrations of 50 μM, 25 μM, 12.5 μM, 6.3 μM and 3.1 μM of test compounds were prepared by diluting a 50 mM DMSO stock in Dulbecco's modified Eagle medium (DMEM) (Gibco, USA) supplemented with 1% heat inactivated fetal bovine serum (FBS) (BioWest, Ringmer, United Kingdom).
Cells were pre-incubated with the test compounds for 3 h at 37° C., in an atmosphere of 5% CO2 and 90% humidity. Afterwards, cells were stimulated with 1 μg/mL lipopolysaccharide (LPS, E. coli 0111:B4, Sigma Chemical Co., USA) and incubated overnight. Concentration of IL-6 was determined in cell supernatants by sandwich ELISA using capture and detection antibodies (R&D Systems, USA) according to the manufacturer's recommendations.
Inhibition (as percentage) was calculated using the following formula:
% inhibition=[1−(concentration of IL-6 in sample−concentration of IL-6 in negative control)/(concentration of IL-6 in positive control−concentration of IL-6 in negative control)]×100.
The positive control refers to LPS-stimulated samples that were not preincubated with the compounds.
The negative control refers to unstimulated and untreated samples.

[2] = Neutrophil, read-out: inhibition of number of neutrophils or decrease in myeloperoxidase concentration in BALF
[3] = read-out: inhibition of total cell number in BALF

Row | Compound | inhibition in vivo at 100 mg/kg (male BALB/cJ mice; [2]) [%] | inhibition in vivo at 100 mg/kg (male BALB/cJ mice; [3]) [%] | inhibition at 50 µM [1] [%]
1 | CC[C@H]1OC(=O)[C@H](C)[C@@H](O[C@H]2C[C@@](C)(OC)[C@@H](O)[C@H](C)O2)[C@H](C)[C@@H](O[C@@H]2O[C@H](C)C[C@H](N(C)C)[C@H]2OCCCNC(=O)c2cnc(C)cn2)[C@](C)(O)C[C@@H](C)CN(C)[C@H](C)[C@@H](O)[C@]1(C)O [Example 18, 2′-O-(3-{[(5-Methyl-2-pyrazinyl)carbonyl]amino}propyl)-9-deoxo-9a-methyl-9a-aza-9a-homoerythromycin A] | > 50 | > 50 | > 40
2 | CC[C@H]1OC(=O)[C@H](C)[C@@H](O[C@H]2C[C@@](C)(OC)[C@@H](O)[C@H](C)O2)[C@H](C)[C@@H](O[C@@H]2O[C@H](C)C[C@H](N(C)C)[C@H]2OCCCNC(=O)CN(C)C)[C@](C)(O)C[C@@H](C)CN(C)[C@H](C)[C@@H](O)[C@]1(C)O [Example 7, 2′-O-{3-[(N,N-Dimethylglycyl)amino]propyl}-9-deoxo-9a-methyl-9a-aza-9a-homoerythromycin A] | > 30 | > 30 | > 40
3 | CC[C@H]1OC(=O)[C@H](C)[C@@H](O[C@H]2C[C@@](C)(OC)[C@@H](O)[C@H](C)O2)[C@H](C)[C@@H](O[C@@H]2O[C@H](C)C[C@H](N(C)C)[C@H]2OCCCNC(=O)C2CCOCC2)[C@](C)(O)C[C@@H](C)CN(C)[C@H](C)[C@@H](O)[C@]1(C)O [Example 25, 2′-1-{3-[(Tetrahydro-2H-pyran-4-ylcarbonyl)amino]propyl}-9-deoxo-9a-methyl-9a-aza-9a-homoerythromycin A] | > 50 | > 50 | > 40
4 | CC[C@H]1OC(=O)[C@H](C)[C@@H](O[C@H]2C[C@@](C)(OC)[C@@H](O)[C@H](C)O2)[C@H](C)[C@@H](O[C@@H]2O[C@H](C)C[C@H](N(C)C)[C@H]2OCCCNC(=O)C2CCC2)[C@](C)(O)C[C@@H](C)CN(C)[C@H](C)[C@@H](O)[C@]1(C)O [Example 15, 2′-O-{3-[(Cyclobutylcarbonyl)amino]propyl}-9-deoxo-9a-methyl-9a-aza-9a-homoerythromycin A] | > 30 | > 30 | > 40
5 | CC[C@H]1OC(=O)[C@H](C)[C@@H](O[C@H]2C[C@@](C)(OC)[C@@H](O)[C@H](C)O2)[C@H](C)[C@@H](O[C@@H]2O[C@H](C)C[C@H](N(C)C)[C@H]2OCCCNC(=O)c2cccnc2)[C@](C)(O)C[C@@H](C)CN(C)[C@H](C)[C@@H](O)[C@]1(C)O [Example 20, 2′-O-{3-[(3-Pyridinylcarbonyl)amino]propyl}-9-deoxo-9a-methyl-9a-aza-9a-homoerythromycin A] | > 30 | > 30 | > 40
6 | CC[C@H]1OC(=O)[C@H](C)[C@@H](O[C@H]2C[C@@](C)(OC)[C@@H](O)[C@H](C)O2)[C@H](C)[C@@H](O[C@@H]2O[C@H](C)C[C@H](N(C)C)[C@H]2OCCCNC(=O)CCC(=O)OC)[C@](C)(O)C[C@@H](C)CN(C)[C@H](C)[C@@H](O)[C@]1(C)O [Example 13, 2′-O-(3-{[4-(Methyloxy)-4-oxobutanoyl]amino}propyl)-9-deoxo-9a-methyl-9a-aza-9a-homoerythromycin A] | > 50 | > 50 | > 40
7 | CC[C@H]1OC(=O)[C@H](C)[C@@H](O[C@H]2C[C@@](C)(OC)[C@@H](O)[C@H](C)O2)[C@H](C)[C@@H](O[C@@H]2O[C@H](C)C[C@H](N(C)C)[C@H]2OCCCNC(=O)c2c(C)nn(C)c2C)[C@](C)(O)C[C@@H](C)CN(C)[C@H](C)[C@@H](O)[C@]1(C)O [Example 19, 2′-O-(3-{[(1,3,5-Trimethyl-1H-pyrazol-4-yl)carbonyl]amino}propyl)-9-deoxo-9a-methyl-9a-aza-9a-homoerythromycin A] | > 50 | > 50 | > 40
8 | CC[C@H]1OC(=O)[C@H](C)[C@@H](O[C@H]2C[C@@](C)(OC)[C@@H](O)[C@H](C)O2)[C@H](C)[C@@H](O[C@@H]2O[C@H](C)C[C@H](N(C)C)[C@H]2OCCCNC(=O)CN(CC)CC)[C@](C)(O)C[C@@H](C)CN(C)[C@H](C)[C@@H](O)[C@]1(C)O [Example 5, 2′-O-{3-[(N,N-Diethylglycyl)amino]propyl}-9-deoxo-9a-methyl-9a-aza-9a-homoerythromycin A] |  |  | > 40
9 | CC[C@H]1OC(=O)[C@H](C)[C@@H](O[C@H]2C[C@@](C)(OC)[C@@H](O)[C@H](C)O2)[C@H](C)[C@@H](O[C@@H]2O[C@H](C)C[C@H](N(C)C)[C@H]2OCCCNC(=O)[C@@H]2CCCN2C)[C@](C)(O)C[C@@H](C)CN(C)[C@H](C)[C@@H](O)[C@]1(C)O [Example 40, 2′-O-{3-[(1-Methyl-L-prolyl)amino]propyl}-9-deoxo-9a-methyl-9a-aza-9a-homoerythromycin A] |  |  | > 40
10 | CC[C@H]1OC(=O)[C@H](C)[C@@H](O[C@H]2C[C@@](C)(OC)[C@@H](O)[C@H](C)O2)[C@H](C)[C@@H](O[C@@H]2O[C@H](C)C[C@H](N(C)C)[C@H]2OCCCNC(=O)c2c(C)nn(C)c2Cl)[C@](C)(O)C[C@@H](C)CN(C)[C@H](C)[C@@H](O)[C@]1(C)O [Example 38, 2′-O-(3-{[(5-Chloro-1,3-dimethyl-1H-pyrazol-4-yl)carbonyl]amino}propyl)-9-deoxo-9a-methyl-9a-aza-9a-homoerythromycin A] |  |  | > 40
11 | CC[C@H]1OC(=O)[C@H](C)[C@@H](O[C@H]2C[C@@](C)(OC)[C@@H](O)[C@H](C)O2)[C@H](C)[C@@H](O[C@@H]2O[C@H](C)C[C@H](N(C)C)[C@H]2OCCCNC(=O)C(C)(C)C)[C@](C)(O)C[C@@H](C)CN(C)[C@H](C)[C@@H](O)[C@]1(C)O [Example 4, 2′-O-{3-[(2,2-Dimethylpropanoyl)amino]propyl}-9-deoxo-9a-methyl-9a-aza-9a-homoerythromycin A] |  |  | > 40
12 | CC[C@H]1OC(=O)[C@H](C)[C@@H](O[C@H]2C[C@@](C)(OC)[C@@H](O)[C@H](C)O2)[C@H](C)[C@@H](O[C@@H]2O[C@H](C)C[C@H](N(C)C)[C@H]2OCCCNC(=O)c2ccoc2)[C@](C)(O)C[C@@H](C)CN(C)[C@H](C)[C@@H](O)[C@]1(C)O [Example 17, 2′-O-{3-[(3-Furanylcarbonyl)amino]propyl}-9-deoxo-9a-methyl-9a-aza-9a-homoerythromycin A] | > 50 | > 50 | > 40
13 | CC[C@H]1OC(=O)[C@H](C)[C@@H](O[C@H]2C[C@@](C)(OC)[C@@H](O)[C@H](C)O2)[C@H](C)[C@@H](O[C@@H]2O[C@H](C)C[C@H](N(C)C)[C@H]2OCCCNC(=O)c2ccncc2)[C@](C)(O)C[C@@H](C)CN(C)[C@H](C)[C@@H](O)[C@]1(C)O [Example 6, 2′-O-{3-[(4-Pyridinylcarbonyl)amino]propyl}-9-deoxo-9a-methyl-9a-aza-9a-homoerythromycin A] |  |  | > 40
14 | CC[C@H]1OC(=O)[C@H](C)[C@@H](O[C@H]2C[C@@](C)(OC)[C@@H](O)[C@H](C)O2)[C@H](C)[C@@H](O[C@@H]2O[C@H](C)C[C@H](N(C)C)[C@H]2OCCCNC(=O)CC(C)C)[C@](C)(O)C[C@@H](C)CN(C)[C@H](C)[C@@H](O)[C@]1(C)O [Example 41, 2′-O-{3-[(3-Methylbutanoyl)amino]propyl}-9-deoxo-9a-methyl-9a-aza-9a-homoerythromycin A] |  |  | > 40
